These are literature values, as cited in patent US7935348B2, “Combination therapy for the treatment of Alzheimer's disease” (Affiris Forschungs-und Entwicklungs GmbH, priority 2004, dated 2011).

Entries after “also recorded” stand apart in the source; their conditions may differ.

One data set concerns Aβ. The note with it: for Aβ amount in the brain: peripheral treatment.
Chain of Aβ (P05067 672-711 limits assumed): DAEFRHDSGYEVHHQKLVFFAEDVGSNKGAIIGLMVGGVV

Consider GM1, for which the “Aβ amount in the brain” value with Aβ is reported as “reduction of the Aβ amount in the brain”. “aggregated Aβ42: aggregated 42-amino acid form of amyloid-β peptide used as a "normal", not mimotope-based vaccine”: the AD-type neuropathologies result in the data set on PDAPP transgenic mouse (immunization of young animals, before onset (6 weeks)) was “prevented the development of plaque formation, neuritic dystrophy and astrogliosis”. Further, in the data set with PDAPP transgenic mouse (treatment of older animals (11 months)), the AD-like neuropathologies result is “markedly reduced AD-like neuropathologies”.

Regarding gelsolin, the “Aβ content in the plasma” value with Aβ (peripheral administration) was “not reduced; also recorded: increased Aβ content in the plasma”. For the same substance, in the data set on Aβ, the “Aβ amount in the brain” value is “reduction of the Aβ amount in the brain”.
